Article PMC3274775 (ACS medicinal chemistry letters, 2011)
Entries after “also recorded” stand apart in the source; their conditions may differ. Read-outs that look alike come from different tables or passages of the source.

Assays:
[1] = Stability in pooled human liver microsomes; assay type: in vitro ADME
CYP3A4 = CYP3A4 (Homo sapiens, UniProt P08684); assay: CYP inhibition/activation in pooled human liver microsomes; assay type: in vitro ADME
CYP2D6 = CYP2D6 (Homo sapiens, UniProt P10635); assay: as above; assay type: in vitro ADME
CYP2D6, sequence (P10635 whole entry): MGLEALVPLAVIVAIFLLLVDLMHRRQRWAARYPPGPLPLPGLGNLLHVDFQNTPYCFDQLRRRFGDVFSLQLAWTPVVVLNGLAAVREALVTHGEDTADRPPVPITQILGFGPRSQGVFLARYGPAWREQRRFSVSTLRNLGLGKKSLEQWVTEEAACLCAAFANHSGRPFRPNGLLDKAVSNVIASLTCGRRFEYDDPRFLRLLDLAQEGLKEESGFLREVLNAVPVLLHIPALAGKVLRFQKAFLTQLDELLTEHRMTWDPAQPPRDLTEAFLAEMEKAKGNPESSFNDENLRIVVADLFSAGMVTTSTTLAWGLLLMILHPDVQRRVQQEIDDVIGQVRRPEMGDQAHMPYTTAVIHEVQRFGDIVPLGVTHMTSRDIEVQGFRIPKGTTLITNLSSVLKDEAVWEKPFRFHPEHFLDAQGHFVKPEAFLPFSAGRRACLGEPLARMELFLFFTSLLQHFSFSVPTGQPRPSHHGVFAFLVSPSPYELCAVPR

CYP2C8 = biological target: T1, CYP2C8 (Homo sapiens, UniProt P10632); assay: as above; assay type: in vitro ADME
T1 sequence (P10632 1-490): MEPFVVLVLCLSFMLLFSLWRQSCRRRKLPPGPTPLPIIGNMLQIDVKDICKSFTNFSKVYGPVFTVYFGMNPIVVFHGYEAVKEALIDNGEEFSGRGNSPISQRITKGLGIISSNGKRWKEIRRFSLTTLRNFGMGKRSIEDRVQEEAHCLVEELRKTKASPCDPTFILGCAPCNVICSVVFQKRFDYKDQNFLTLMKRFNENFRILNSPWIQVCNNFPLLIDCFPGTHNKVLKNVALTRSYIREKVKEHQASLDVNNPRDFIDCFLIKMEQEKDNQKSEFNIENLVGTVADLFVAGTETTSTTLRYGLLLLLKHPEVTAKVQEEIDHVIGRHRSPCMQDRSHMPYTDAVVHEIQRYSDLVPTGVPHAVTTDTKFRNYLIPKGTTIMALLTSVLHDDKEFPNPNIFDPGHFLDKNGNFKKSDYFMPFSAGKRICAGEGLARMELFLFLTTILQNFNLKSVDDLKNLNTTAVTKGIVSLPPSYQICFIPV

UGT 1A1 [2] = biological target: T2, UGT 1A1 (Homo sapiens, UniProt P22309); assay: UGT substrate assay
T2 sequence (P22309 26-533): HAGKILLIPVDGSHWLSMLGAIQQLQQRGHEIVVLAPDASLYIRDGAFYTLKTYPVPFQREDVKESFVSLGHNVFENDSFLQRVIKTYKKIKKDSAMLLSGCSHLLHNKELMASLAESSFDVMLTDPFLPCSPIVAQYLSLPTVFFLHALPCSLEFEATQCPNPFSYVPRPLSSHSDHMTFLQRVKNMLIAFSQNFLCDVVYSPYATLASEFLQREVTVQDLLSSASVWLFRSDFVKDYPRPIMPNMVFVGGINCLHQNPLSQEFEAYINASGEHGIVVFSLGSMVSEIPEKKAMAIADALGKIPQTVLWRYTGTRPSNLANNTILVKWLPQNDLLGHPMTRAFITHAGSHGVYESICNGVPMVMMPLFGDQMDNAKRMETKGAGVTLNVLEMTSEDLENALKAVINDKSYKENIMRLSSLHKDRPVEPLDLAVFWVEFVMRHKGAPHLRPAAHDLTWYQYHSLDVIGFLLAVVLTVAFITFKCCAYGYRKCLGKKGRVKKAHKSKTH

UGT 1A4 = biological target: T3, UGT 1A4 (Homo sapiens, UniProt P22310); assay: UGT substrate assay
T3 sequence (P22310 29-534): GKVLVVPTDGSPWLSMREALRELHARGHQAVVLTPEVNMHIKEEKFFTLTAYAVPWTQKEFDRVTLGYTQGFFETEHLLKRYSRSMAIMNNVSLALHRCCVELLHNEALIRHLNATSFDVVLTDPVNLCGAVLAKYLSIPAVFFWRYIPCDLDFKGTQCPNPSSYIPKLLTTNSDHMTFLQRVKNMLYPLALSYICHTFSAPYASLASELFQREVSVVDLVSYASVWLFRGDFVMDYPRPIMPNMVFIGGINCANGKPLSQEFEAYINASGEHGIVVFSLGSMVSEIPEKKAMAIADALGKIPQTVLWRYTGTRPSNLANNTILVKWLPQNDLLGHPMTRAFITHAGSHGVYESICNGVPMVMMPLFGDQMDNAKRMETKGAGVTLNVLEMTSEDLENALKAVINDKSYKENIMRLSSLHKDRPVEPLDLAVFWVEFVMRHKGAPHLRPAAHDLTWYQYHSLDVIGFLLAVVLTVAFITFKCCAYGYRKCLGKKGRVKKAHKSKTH

UGT 1A6 = biological target: T4, UGT 1A6 (Homo sapiens, UniProt P19224); assay: UGT substrate assay
T4 sequence (P19224 27-532): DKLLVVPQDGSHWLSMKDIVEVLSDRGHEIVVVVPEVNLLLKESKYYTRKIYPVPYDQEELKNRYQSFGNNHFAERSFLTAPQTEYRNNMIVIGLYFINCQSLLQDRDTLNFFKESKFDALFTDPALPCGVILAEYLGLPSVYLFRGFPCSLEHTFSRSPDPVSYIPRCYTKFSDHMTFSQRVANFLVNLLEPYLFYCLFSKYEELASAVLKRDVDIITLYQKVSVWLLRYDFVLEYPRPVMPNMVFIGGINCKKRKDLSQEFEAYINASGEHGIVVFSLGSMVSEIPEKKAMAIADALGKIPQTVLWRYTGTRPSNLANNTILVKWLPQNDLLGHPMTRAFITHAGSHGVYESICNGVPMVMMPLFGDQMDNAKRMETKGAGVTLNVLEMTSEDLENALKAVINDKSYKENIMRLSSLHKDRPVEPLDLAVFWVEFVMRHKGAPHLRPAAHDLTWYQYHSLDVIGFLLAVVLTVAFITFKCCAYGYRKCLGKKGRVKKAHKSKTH

UGT 1A9 = biological target: T5, UGT 1A9 (Homo sapiens, UniProt O60656); assay: UGT substrate assay
T5 sequence (O60656 26-530): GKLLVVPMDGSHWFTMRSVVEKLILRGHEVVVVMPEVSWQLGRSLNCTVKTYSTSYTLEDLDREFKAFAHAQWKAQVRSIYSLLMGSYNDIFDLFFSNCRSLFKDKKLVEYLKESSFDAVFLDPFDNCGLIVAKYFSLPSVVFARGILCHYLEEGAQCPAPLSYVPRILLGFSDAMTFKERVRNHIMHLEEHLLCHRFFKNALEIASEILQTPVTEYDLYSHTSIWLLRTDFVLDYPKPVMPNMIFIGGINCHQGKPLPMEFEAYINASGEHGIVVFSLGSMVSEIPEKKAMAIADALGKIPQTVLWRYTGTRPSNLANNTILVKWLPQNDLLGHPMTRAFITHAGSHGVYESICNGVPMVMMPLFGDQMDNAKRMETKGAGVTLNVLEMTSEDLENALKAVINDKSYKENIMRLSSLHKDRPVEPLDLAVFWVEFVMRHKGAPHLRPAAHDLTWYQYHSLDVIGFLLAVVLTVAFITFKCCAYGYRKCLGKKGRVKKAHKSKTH

UGT 2B7 = biological target: T6, UGT 2B7 (Homo sapiens, UniProt P16662); assay: UGT substrate assay
T6 sequence (P16662 24-529): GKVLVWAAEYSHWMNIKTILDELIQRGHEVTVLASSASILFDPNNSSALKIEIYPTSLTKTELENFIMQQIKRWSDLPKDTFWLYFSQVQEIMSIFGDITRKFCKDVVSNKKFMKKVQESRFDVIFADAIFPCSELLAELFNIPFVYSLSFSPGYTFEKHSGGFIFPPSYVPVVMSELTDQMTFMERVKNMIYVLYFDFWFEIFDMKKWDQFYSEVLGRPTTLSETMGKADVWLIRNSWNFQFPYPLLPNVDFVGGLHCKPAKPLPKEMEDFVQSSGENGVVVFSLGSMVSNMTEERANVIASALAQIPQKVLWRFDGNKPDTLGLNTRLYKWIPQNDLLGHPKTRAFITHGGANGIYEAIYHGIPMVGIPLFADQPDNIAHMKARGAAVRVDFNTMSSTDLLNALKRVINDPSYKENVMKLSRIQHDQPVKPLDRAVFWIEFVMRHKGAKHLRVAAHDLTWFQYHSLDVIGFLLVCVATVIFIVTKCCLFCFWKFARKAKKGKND

HIV-1 = assay: microbe, parasite or virus in culture; settings: Human immunodeficiency virus 1, MAGI
HIV-1 integrase = HIV-1 integrase (Human immunodeficiency virus type 1 group M subtype B, UniProt P04585); assay: Inhibition of the strand transfer; assay type: biochemical
UGT 1A1 [3] = biological target: T2, UGT 1A1; settings: cited from earlier work

CYP3A4, sequence (P08684 whole entry): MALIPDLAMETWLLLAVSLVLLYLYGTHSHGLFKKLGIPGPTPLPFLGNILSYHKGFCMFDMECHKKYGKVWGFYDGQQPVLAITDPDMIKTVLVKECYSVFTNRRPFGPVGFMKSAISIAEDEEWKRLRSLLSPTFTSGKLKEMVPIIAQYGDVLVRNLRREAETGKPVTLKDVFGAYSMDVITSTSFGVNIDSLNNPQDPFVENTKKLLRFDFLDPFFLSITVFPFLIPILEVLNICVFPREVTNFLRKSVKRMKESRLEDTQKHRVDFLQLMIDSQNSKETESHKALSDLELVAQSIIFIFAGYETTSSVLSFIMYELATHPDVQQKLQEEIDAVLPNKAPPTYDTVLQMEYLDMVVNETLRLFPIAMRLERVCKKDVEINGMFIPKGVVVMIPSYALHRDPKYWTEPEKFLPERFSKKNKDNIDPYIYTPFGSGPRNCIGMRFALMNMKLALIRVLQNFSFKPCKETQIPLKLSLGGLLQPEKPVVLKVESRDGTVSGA

O=C(O)/C(O)=C/C(=O)c1cc(Cc2ccc(F)cc2F)cn(Cc2ccccc2F)c1=O [Compound 2, 4-(5-(2,4-difluorobenzyl)-1-(2-fluoro-benzyl)-2-oxo-1,2-dihydro-pyridin-3-yl)-2-hydroxy-4-oxobut-2-enoic acid]
stability in pooled human liver microsomes [1]: good stability; also recorded: relatively stable
activation of CYP3A4 (CYP3A4): did not exhibit any activation
inhibition of CYP3A4 (CYP3A4): not an inhibitor
activation of CYP2D6 (CYP2D6): did not exhibit any activation
inhibition of CYP2D6 (CYP2D6): not an inhibitor
activation of CYP2C8 (CYP2C8): did not exhibit any activation
substrate activity towards UGT 1A1 (UGT 1A1 [2]): not a substrate
substrate activity towards UGT 1A4 (UGT 1A4): not a substrate
substrate activity towards UGT 1A6 (UGT 1A6): not a substrate
substrate activity towards UGT 1A9 (UGT 1A9): not a substrate
substrate activity towards UGT 2B7 (UGT 2B7): not a substrate
EC50 (HIV-1; read-out: anti-HIV-1 EC50): ≤ 0.5 µM

CC(C)OC(=O)/C(O)=C/C(=O)c1cc(Cc2ccc(F)cc2F)cn(Cc2ccccc2F)c1=O [Compound 10]
IC50 (HIV-1 integrase): > 0.475 µM
conversion to compound 2 by hydrolysis in human liver microsomes ([1]; in 15 minutes): 100%

O=C(O)C(=O)C=C(O)c1cc(Cc2ccc(F)cc2F)cn(Cc2ccc(F)cc2F)c1=O [Entry 11, 4-(1,5-bis(2,4-difluorobenzyl)-2-oxo-1,2-dihydropyridin-3-yl)-4-hydroxy-2-oxobut-3-enoic acid]
IC50 (HIV-1 integrase): 0.0055 ± 0.0015 µM
EC50 (HIV-1): 0.3 µM
EC50 (HIV-1; read-out: anti-HIV-1 EC50): ≤ 0.5 µM

C[C@@H]1CCO[C@H]2Cn3cc(C(=O)NCc4ccc(F)cc4F)c(=O)c(O)c3C(=O)N12 [S/GSK 1349572]
substrate activity towards UGT 1A1 (UGT 1A1 [3]; primary route of metabolism and clearance is glucuronidation): substrate for UGT 1A1

Cc1nnc(C(=O)NC(C)(C)c2nc(C(=O)NCc3ccc(F)cc3)c(O)c(=O)n2C)o1 [raltegravir, reference compound]
major mechanism of clearance in humans (UGT 1A1 [3]; humans): UGT 1A1-mediated glucuronidation
EC50 (HIV-1; read-out: anti-HIV-1 EC50): < 0.006 µM
